What was measured:
[1] = Assessment of different inhalers with flecainide acetate (FA) solution at 30 mg/ml; format: physicochemical
Procedure: Different inhalers were then tested to assess compatibility of material to the different materials of construction and different types of inhalers (Table 2).
The Trek S from PARI was able to deliver the same dose in about 3 minutes.

[2] = tested on: animal displaying atrial fibrillation; assay: Treatment of atrial fibrillation by intra-tracheal flecainide, monitored by smartphone ECG and Prucka System; format: in vivo; details: intra-tracheal administration of 0.75 mg/kg; animal in atrial fibrillation
Procedure: An exemplary smart phone app was installed on a smartphone in order to monitor the efficacy of FA at ceasing incidence of atrial fibrillation. The smartphone app allowed for communication between the smart phone and an electronic monitoring chip used to produce an ECG.
The smart phone device was then used to monitor the treatment efficacy of an intra-tracheal administration of 0.75 mg/kg flecainide in treating atrial fibrillation. FIG. 9 depicts an exemplary ECG produced from a smartphone as compared to a Prucka System in an animal displaying atrial fibrillation. Again, the traces show excellent correlation between the two devices.

[3] = tested on: PAF; details: cited from earlier work
[4] = tested on: atrial fibrillation; assay: Administration of diltiazem by inhalation in atrial fibrillation; format: in vivo
Excerpt: Inhalation avoids the initial dilution of drug in the body as compared to intravenous or oral dosing. Inhalation also avoids first-pass metabolism, such as hepatic metabolism. For instance, calcium channel blockers, such as diltiazem, undergo significant hepatic metabolism when taken orally. Inhalation allows rapid delivery of the parent diltiazem compound to the heart as a bolus. […] Thus, administration by inhalation of diltiazem is useful for treating both atrial fibrillation and supraventricular tachycardia (SVT). In contrast, administration by IV of diltiazem is typically only used for converting SVT to normal sinus rhythm and in atrial fibrillation to reduce heart rate (not for converting to normal sinus rhythm). Inhalation also avoids red blood cell metabolism. For instance, the reduced dilution and short route associated with inhalation reduces red blood cell metabolism of esmolol. Inhalation may also avoid reduced blood pressure and fainting. For instance, IV administration of beta blockers, such as esmolol, and/or Class I antiarrhythmics such as flecainide, may reduce mean arterial blood pressure (MAP). Inhalation can allow rapid delivery of esmolol and/or flecainide without reducing MAP. […]

SMILES	Time to deliver a 30-40 mg dose ([1]; Pari e-rapid or Lumiscope inhalers, 30-40 mg dose)	Time to deliver a 30-40 mg dose ([1]; Trek S from PARI, same 30-40 mg dose)	Effect on atrial fibrillation (ECG rhythm) [2]	Average time to terminate the PAF ([3]; oral bolus of 300 mg (max per day) at one time) [min]	Effectiveness of oral flecainide ([3]; oral)	Effect on atrial fibrillation rhythm [4]	Effect on heart rate [4]
O=C(NCC1CCCCN1)c1cc(OCC(F)(F)F)ccc1OCC(F)(F)F (stereo not shown) [flecainide]	less than 2 minutes	about 3 minutes	return to sinus rhythm	100	30-50%		
COc1ccc([C@@H]2Sc3ccccc3N(CCN(C)C)C(=O)[C@@H]2OC(C)=O)cc1 [diltiazem]						converted atrial fibrillation to normal sinus rhythm	reduced heart rate

From patent publication US10660578B2, “Combining electronic monitoring with inhaled pharmacological therapy to manage cardiac arrhythmias including atrial fibrillation” (InCarda Therapeutics, Inc., priority 2016, dated 2020)
